PMC6028563, “Probing Substituents in the 1- and 3-Position: Tetrahydropyrazino-Annelated Water-Soluble Xanthine Derivatives as Multi-Target Drugs With Potent Adenosine Receptor Antagonistic Activity” (Frontiers in Chemistry, 2018)

Tests used:
[1] = target: T1, human A2B AR (Homo sapiens, UniProt P29275); test: Radioligand binding assay at human A2B AR vs. [^3H]PSB-603; conditions: for Ki: CHO cell membranes, n = 2 (n = 3 where marked a), read-out: Ki ± SEM, A2B vs. [^3H]PSB-603; for inhibition at 1 µM: at 1,000 nM
T1 construct: expressed in transfected cells; host or cells: CHO cells
T1 sequence (P29275 1-332): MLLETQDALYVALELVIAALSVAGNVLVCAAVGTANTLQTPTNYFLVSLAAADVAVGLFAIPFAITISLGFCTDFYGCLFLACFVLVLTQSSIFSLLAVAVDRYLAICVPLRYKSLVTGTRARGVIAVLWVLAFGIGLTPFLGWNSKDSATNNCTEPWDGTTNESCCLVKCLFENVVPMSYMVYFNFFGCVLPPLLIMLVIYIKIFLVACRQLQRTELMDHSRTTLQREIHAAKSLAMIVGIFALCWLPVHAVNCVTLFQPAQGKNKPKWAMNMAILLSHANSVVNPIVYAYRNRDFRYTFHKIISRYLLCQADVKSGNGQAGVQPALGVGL
Procedure, shortened: (§1)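 Affinity values derive from radioligand displacement on membrane preparations: native rat tissue (cortex for A1, striatum for A2A) or CHO cells recombinantly expressing human A1, A2A, A2B or A3 ARs.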

[2] = target: T2, human A3 AR (Homo sapiens, UniProt P0DMS8); test: Radioligand binding assay at human A3 AR vs. [^3H]PSB-11; conditions: for Ki: CHO cell membranes, n = 2 (n = 3 where marked a), read-out: Ki ± SEM, A3 vs. [^3H]PSB-11; for inhibition at 10 µM: at 10,000 nM, read-out: % inhibition of radioligand binding at indicated concentration, A3 vs. [^3H]PSB-11
T2 construct: expressed in transfected cells; host or cells: CHO cells
T2 sequence (P0DMS8 1-318): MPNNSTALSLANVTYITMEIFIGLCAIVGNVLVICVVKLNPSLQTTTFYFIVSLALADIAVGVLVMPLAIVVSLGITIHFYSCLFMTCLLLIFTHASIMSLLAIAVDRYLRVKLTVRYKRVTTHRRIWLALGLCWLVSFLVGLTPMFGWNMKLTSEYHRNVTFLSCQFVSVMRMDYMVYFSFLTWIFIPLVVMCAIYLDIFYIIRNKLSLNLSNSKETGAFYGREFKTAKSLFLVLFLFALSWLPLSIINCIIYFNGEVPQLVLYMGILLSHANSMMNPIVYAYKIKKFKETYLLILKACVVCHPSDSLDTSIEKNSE
Procedure, shortened: as §1

[3] = target: T3, recombinant human MAO-B (Homo sapiens, UniProt P27338); test: Monoamine oxidase assay (Amplex Red), MAO-B; type: biochemical; conditions: for IC50: n = 3, read-out: IC50 ± SEM, Human MAO-B; for inhibition at 10 µM: at 10,000 nM (10 μM), read-out: % inhibition at indicated concentration, Human MAO-B
T3 construct: purchased Sigma-Aldrich M7441; host or cells: baculovirus-infected insect cells
T3 sequence (P27338 1-520): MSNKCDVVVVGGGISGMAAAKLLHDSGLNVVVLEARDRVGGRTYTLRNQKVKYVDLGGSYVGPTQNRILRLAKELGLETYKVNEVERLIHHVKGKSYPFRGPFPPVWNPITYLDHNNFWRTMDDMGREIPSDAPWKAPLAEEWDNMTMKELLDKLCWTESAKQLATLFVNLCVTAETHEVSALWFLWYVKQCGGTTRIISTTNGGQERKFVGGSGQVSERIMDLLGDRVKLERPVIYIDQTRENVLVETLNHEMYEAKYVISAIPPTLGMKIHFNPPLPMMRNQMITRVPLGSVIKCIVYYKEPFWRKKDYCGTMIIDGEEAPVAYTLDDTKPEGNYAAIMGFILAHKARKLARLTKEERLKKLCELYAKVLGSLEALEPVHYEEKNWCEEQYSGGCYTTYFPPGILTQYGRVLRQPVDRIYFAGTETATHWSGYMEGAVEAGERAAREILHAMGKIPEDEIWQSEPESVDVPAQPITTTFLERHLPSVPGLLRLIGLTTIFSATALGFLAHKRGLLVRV
Procedure, shortened: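 Inhibition was measured with an Amplex Red monoamine oxidase assay, using human MAO-A and MAO-B produced recombinantly in baculovirus-infected insect cells. For rat MAO-B, liver mitochondria-enriched fractions from male Sprague Dawley rats served as enzyme source.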

[4] = target: T4, rat A2A AR (Rattus norvegicus, UniProt P30543); test: Radioligand binding assay at rat A2A AR (rat brain striatum) vs. [^3H]MSX-2; conditions: rat (r); for % inhibition of radioligand binding at indicated concentration, A2A vs. [^3H]MSX-2: at 1,000 nM; for Ki: rat brain striatum, n = 3, read-out: Ki ± SEM, A2A vs. [^3H]MSX-2
T4 construct: A2A ARs of rat brain striatal membrane preparations; from tissue; host or cells: rat brain striatum membranes
Procedure, shortened: as §1

[5] = target: T5, human A1 AR (Homo sapiens, UniProt P30542); test: Radioligand binding assay at human A1 AR vs. [^3H]CCPA; conditions: human (h); CHO cell membranes; n = 3
T5 construct: expressed in transfected cells; host or cells: CHO cells
T5 sequence (P30542 1-326): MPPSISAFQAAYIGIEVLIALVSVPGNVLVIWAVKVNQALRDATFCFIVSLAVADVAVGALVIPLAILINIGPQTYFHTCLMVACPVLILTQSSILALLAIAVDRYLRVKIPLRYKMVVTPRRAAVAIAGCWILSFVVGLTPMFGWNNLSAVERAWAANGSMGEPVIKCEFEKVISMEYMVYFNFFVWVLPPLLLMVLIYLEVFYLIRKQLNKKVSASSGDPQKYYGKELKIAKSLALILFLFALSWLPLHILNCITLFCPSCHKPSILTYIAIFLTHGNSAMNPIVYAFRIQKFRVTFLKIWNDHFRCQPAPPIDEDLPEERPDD
Procedure, shortened: as §1

[6] = read-out: % inhibition of radioligand binding at indicated concentration, A2B vs. [^3H]PSB-603

T4 sequence (P30543 whole entry): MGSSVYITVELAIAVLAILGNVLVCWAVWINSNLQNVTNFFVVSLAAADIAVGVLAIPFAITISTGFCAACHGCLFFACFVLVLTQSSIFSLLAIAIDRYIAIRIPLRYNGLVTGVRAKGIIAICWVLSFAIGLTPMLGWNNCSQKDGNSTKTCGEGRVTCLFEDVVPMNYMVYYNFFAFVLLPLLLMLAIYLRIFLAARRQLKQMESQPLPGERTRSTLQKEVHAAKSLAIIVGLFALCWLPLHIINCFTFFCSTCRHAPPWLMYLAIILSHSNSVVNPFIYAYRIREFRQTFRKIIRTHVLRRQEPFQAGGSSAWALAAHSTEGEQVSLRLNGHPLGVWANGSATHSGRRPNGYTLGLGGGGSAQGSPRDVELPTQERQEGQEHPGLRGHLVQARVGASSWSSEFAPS

SMILES	Ki [1]	inhibition at 1 µM [1, 6]	Ki [2]	IC50 [3]	% inhibition of radioligand binding at indicated concentration, A2A vs. [^3H]MSX-2 [4]	Ki [4]	Ki [5]	inhibition at 10 µM [2]	inhibition at 10 µM [3]	inhibition at 0.1 µM ([1]; at 100 nM, read-out: % inhibition of radioligand binding at indicated concentration, A2B vs. [^3H]PSB-603)
CCn1c(=O)c2c(nc3n2CCN(Cc2ccc(Br)cc2)C3)n(C)c1=O [Compound 14c, 8-(4-bromobenzyl)-3-ethyl-1-methyl-6,7,8,9-tetrahydropyrazino[2,1-f]purine-2,4(1H,3H)-dione]	> 1000 nM	1%	9390 nM	1630 nM	35%	> 1000 nM	1350 nM			
C#CCn1c(=O)c2c(nc3n2CCN(Cc2cc(C(F)(F)F)ccc2Cl)C3)n(C)c1=O [Compound 19b, 8-(2-chloro-5-(trifluoromethyl)benzyl)-1-methyl-3-propargyl-6,7,8,9-tetrahydropyrazino[2,1-f]purine-2,4(1H,3H)-dione]	> 1000 nM	3%	> 10000 nM	< 10000 nM		414 ± 49 nM	110 ± 4 nM	25%	59%	
CCn1c(=O)c2c(nc3n2CCN(Cc2cc(F)c(F)c(F)c2)C3)n(CC)c1=O [Compound 15r, 1,3-diethyl-8-(3,4,5-trifluorobenzyl)-6,7,8,9-tetrahydropyrazino[2,1-f]purine-2,4(1H,3H)-dione]	> 1000 nM	23%	> 10000 nM	524 ± 26 nM	36%	> 1000 nM	1190 nM	14%		
CCn1c(=O)c2c(nc3n2CCN(Cc2cc(Br)ccc2F)C3)n(C)c1=O [Compound 14o, 8-(5-bromo-2-fluorobenzyl)-3-ethyl-1-methyl-6,7,8,9-tetrahydropyrazino[2,1-f]purine-2,4(1H,3H)-dione]	> 1000 nM	11%	> 10000 nM	3070 nM		880 ± 174 nM	116 ± 27 nM	39%		
CCn1c(=O)c2c(nc3n2CCN(Cc2cccc(C(F)(F)F)c2)C3)n(CC)c1=O [Compound 15g, 1,3-diethyl-8-(3-(trifluoromethyl)benzyl)-6,7,8,9-tetrahydropyrazino[2,1-f]purine-2,4(1H,3H)-dione]	> 1000 nM	27%	> 10000 nM	> 10000 nM		1030 nM	84.8 ± 2.4 nM	36%	10%	
CCn1c(=O)c2c(nc3n2CCN(Cc2ccc(F)c(Br)c2)C3)n(CC)c1=O [Compound 15k, 8-(3-bromo-4-fluorobenzyl)-1,3-diethyl-6,7,8,9-tetrahydropyrazino[2,1-f]purine-2,4(1H,3H)-dione]	> 1000 nM	34%	7190 nM	< 10000 nM	30%	> 1000 nM	362 ± 98 nM		63%	
CCn1c(=O)c2c(nc3n2CCN(Cc2cc(C(F)(F)F)ccc2F)C3)n(CC)c1=O [Compound 15j, 1,3-diethyl-8-(2-fluoro-5-(trifluoromethyl)benzyl)-6,7,8,9-tetrahydropyrazino[2,1-f]purine-2,4(1H,3H)-dione]	> 1000 nM	27%	> 10000 nM	< 10000 nM		600 ± 54 nM	39.4 ± 7.4 nM	25%	58%	
Cn1c(=O)c2c(nc3n2CCN(Cc2ccc(Cl)c(Cl)c2)C3)n(C2CC2)c1=O [Compound 17, 8-(3,4-dichlorobenzyl)-1-cyclopropyl-3-methyl-6,7,8,9-tetrahydropyrazino[2,1-f]purine-2,4(1H,3H)-dione]	> 100 nM		> 10000 nM	3690 nM		3940 nM	1130 nM	26%		2%
CCn1c(=O)c2c(nc3n2CCN(Cc2cc(Cl)cc(Cl)c2)C3)n(CC)c1=O [Compound 15m, 8-(3,5-dichlorobenzyl)-1,3-diethyl-6,7,8,9-tetrahydropyrazino[2,1-f]purine-2,4(1H,3H)-dione]	> 1000 nM	23%	4720 nM	< 10000 nM		2200 nM	207 ± 48 nM		66%	
